{"source": "ChEMBL document CHEMBL1143651", "about": "“Design and synthesis of 6-anilinoindazoles as selective inhibitors of c-Jun N-terminal kinase-3” (Bioorg Med Chem Lett, 2005)", "key": {"[1]": {"molecular_target": "Mitogen-activated protein kinase 10 (Homo sapiens, UniProt P53779)", "sequence (P53779 whole entry)": "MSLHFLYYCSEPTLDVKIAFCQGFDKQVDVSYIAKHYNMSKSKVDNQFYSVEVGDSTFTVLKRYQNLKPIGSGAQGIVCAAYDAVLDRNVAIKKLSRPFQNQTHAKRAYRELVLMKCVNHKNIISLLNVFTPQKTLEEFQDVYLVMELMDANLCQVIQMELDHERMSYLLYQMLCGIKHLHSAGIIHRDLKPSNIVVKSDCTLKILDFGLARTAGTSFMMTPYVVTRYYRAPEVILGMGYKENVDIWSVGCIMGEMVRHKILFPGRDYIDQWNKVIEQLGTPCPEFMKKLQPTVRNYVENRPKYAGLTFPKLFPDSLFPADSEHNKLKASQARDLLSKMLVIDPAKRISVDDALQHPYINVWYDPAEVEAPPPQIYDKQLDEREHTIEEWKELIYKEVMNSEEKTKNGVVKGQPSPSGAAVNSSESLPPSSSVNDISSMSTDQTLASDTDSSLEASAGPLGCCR", "assay": "Inhibitory concentration against c-Jun N-terminal kinase 3"}, "[2]": {"molecular_target": "Mitogen-activated protein kinase 8 (Homo sapiens, UniProt P45983)", "sequence (P45983 whole entry)": "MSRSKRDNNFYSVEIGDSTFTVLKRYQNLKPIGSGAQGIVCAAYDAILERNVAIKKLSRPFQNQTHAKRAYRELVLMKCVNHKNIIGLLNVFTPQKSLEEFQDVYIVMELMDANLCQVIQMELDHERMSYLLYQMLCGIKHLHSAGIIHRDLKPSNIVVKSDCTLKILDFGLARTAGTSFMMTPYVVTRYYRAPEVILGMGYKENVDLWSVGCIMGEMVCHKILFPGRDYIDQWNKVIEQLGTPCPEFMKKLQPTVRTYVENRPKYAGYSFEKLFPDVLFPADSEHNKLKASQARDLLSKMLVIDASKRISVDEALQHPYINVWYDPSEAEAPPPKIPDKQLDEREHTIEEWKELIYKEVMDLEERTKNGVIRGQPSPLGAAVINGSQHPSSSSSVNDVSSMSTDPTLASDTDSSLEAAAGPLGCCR", "assay": "Inhibitory concentration against c-Jun N-terminal kinase 1"}, "[3]": {"molecular_target": "Mitogen-activated protein kinase 14 (Homo sapiens, UniProt Q16539)", "sequence (Q16539 whole entry)": "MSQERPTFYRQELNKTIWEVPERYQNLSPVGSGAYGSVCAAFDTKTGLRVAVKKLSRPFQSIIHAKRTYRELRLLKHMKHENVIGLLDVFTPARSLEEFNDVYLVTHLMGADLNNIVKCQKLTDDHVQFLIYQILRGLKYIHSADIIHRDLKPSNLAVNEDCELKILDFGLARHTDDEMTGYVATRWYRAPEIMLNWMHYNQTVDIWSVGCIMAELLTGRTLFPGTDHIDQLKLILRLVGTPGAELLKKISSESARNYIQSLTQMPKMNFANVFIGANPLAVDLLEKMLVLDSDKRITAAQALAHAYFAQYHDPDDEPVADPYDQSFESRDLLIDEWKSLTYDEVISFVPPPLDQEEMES", "assay": "Inhibitory concentration against Mitogen-activated protein kinase p38 alpha"}}, "note": "pIC50: −log10 of the molar value.", "data": [{"smiles": "O=C(O)c1cccc(-c2n[nH]c3cc(Nc4ccccc4Cl)ccc23)c1", "values": [{"measurement": "pIC50", "setting": "[1]", "value": 8.28}, {"measurement": "pIC50", "setting": "[2]", "value": 7.21}, {"measurement": "pIC50", "setting": "[3]", "value": 7.62}]}, {"smiles": "Clc1ccccc1Nc1ccc2c(-c3ccccc3)n[nH]c2c1", "values": [{"measurement": "pIC50", "setting": "[1]", "value": 7.52}, {"measurement": "pIC50", "setting": "[2]", "value": 5.27}, {"measurement": "pIC50", "setting": "[3]", "value": 7.74}]}, {"smiles": "NC(=O)c1cccc(-c2n[nH]c3cc(Nc4ccccc4Cl)ccc23)c1", "values": [{"measurement": "pIC50", "setting": "[1]", "value": 8.48}, {"measurement": "pIC50", "setting": "[2]", "value": 7.09}, {"measurement": "pIC50", "setting": "[3]", "value": 8.49}]}, {"smiles": "c1ccc(Nc2ccc3c(-c4ccccc4)n[nH]c3c2)cc1", "values": [{"measurement": "pIC50", "setting": "[1]", "value": 7.32}, {"measurement": "pIC50", "setting": "[2]", "value": "< 5.00"}, {"measurement": "pIC50", "setting": "[3]", "value": 7.52}]}, {"smiles": "COc1ccccc1Nc1ccc2c(-c3ccccc3)n[nH]c2c1", "values": [{"measurement": "pIC50", "setting": "[1]", "value": 6.69}, {"measurement": "pIC50", "setting": "[2]", "value": 5.80}, {"measurement": "pIC50", "setting": "[3]", "value": 7.34}]}, {"smiles": "O=C(NCCCN1CCOCC1)c1cccc(-c2n[nH]c3cc(Nc4ccccc4Cl)ccc23)c1", "values": [{"measurement": "pIC50", "setting": "[1]", "value": 8.47}, {"measurement": "pIC50", "setting": "[2]", "value": 6.64}, {"measurement": "pIC50", "setting": "[3]", "value": 8.43}]}, {"smiles": "CN(C)CCNC(=O)c1cccc(-c2n[nH]c3cc(Nc4ccccc4Cl)ccc23)c1", "values": [{"measurement": "pIC50", "setting": "[1]", "value": 7.68}, {"measurement": "pIC50", "setting": "[2]", "value": 6.16}, {"measurement": "pIC50", "setting": "[3]", "value": 7.80}]}, {"smiles": "O=C(NC1CCNCC1)c1cccc(-c2n[nH]c3cc(Nc4ccccc4Cl)ccc23)c1", "values": [{"measurement": "pIC50", "setting": "[1]", "value": 8.85}, {"measurement": "pIC50", "setting": "[2]", "value": 7.15}, {"measurement": "pIC50", "setting": "[3]", "value": 8.36}]}, {"smiles": "CN(C)CCNC(=O)c1ccc(-c2n[nH]c3cc(Nc4ccccc4Cl)ccc23)cc1", "values": [{"measurement": "pIC50", "setting": "[1]", "value": 8.72}, {"measurement": "pIC50", "setting": "[2]", "value": 7.35}, {"measurement": "pIC50", "setting": "[3]", "value": 8.06}]}, {"smiles": "O=C(O)c1ccc(-c2n[nH]c3cc(Nc4ccccc4Cl)ccc23)cc1", "values": [{"measurement": "pIC50", "setting": "[1]", "value": 7.49}, {"measurement": "pIC50", "setting": "[2]", "value": 6.61}, {"measurement": "pIC50", "setting": "[3]", "value": 7.89}]}]}
